PMC10689823, “Discovery of a Drug-like, Natural Product-Inspired DCAF11 Ligand Chemotype” (Nature Communications, 2023)

Molecular target: BRD4S-TagBFP reporter (Homo sapiens, UniProt O60885)
Assay: FACS-based CRISPR/Cas9 BRD4 protein stability screen
Conditions: Mageck_Gene level

- High_lfc (Gene DCAF1): -0.04
- High_logP (Gene DCAF1): 0.22
- Low_lfc (Gene DCAF1): 0.71
- Low_logP (Gene DCAF1): 1.93
- High_lfc (Gene DCAF4): -0.33
- High_logP (Gene DCAF4): 0.01
- Low_lfc (Gene DCAF4): -0.08
- Low_logP (Gene DCAF4): 0.63
- High_lfc (Gene DCAF5): -0.12
- High_logP (Gene DCAF5): 0.13
- Low_lfc (Gene DCAF5): 0.4
- Low_logP (Gene DCAF5): 1.39
- High_lfc (Gene DCAF6): 0.1
- High_logP (Gene DCAF6): 0.11
- Low_lfc (Gene DCAF6): 0.51
- Low_logP (Gene DCAF6): 1.55
- High_lfc (Gene DCAF7): -0.09
- High_logP (Gene DCAF7): 0.04
- Low_lfc (Gene DCAF7): 0.11
- Low_logP (Gene DCAF7): 0.24
- High_lfc (Gene DCAF8): -0.19
- High_logP (Gene DCAF8): 0.14
- Low_lfc (Gene DCAF8): 0.08
- Low_logP (Gene DCAF8): 0.18
- High_lfc (Gene DCAF12): 0.07
- High_logP (Gene DCAF12): 0.29
- Low_lfc (Gene DCAF12): -0.16
- Low_logP (Gene DCAF12): 0.06
- High_lfc (Gene DCAF13): -0.33
- High_logP (Gene DCAF13): 0.07
- Low_lfc (Gene DCAF13): -0.3
- Low_logP (Gene DCAF13): 0.33
- High_lfc (Gene DCAF15): -0.01
- High_logP (Gene DCAF15): 0.12
- Low_lfc (Gene DCAF15): 0.32
- Low_logP (Gene DCAF15): 0.83
- High_lfc (Gene DCAF16): 0.71
- High_logP (Gene DCAF16): 2.61
- Low_lfc (Gene DCAF16): -0.66
- Low_logP (Gene DCAF16): 0.04
- High_lfc (Gene DCAF17): 0.07
- High_logP (Gene DCAF17): 0.17
- Low_lfc (Gene DCAF17): -0.16
- Low_logP (Gene DCAF17): 0.07
- High_lfc (Gene DCUN1D1): 0.27
- High_logP (Gene DCUN1D1): 1.62
- Low_lfc (Gene DCUN1D1): -0.11
- Low_logP (Gene DCUN1D1): 0.82
- High_lfc (Gene DCUN1D2): -0.24
- High_logP (Gene DCUN1D2): 0
- Low_lfc (Gene DCUN1D2): 0.46
- Low_logP (Gene DCUN1D2): 1.57
- High_lfc (Gene DCUN1D3): 0.07
- High_logP (Gene DCUN1D3): 0.22
- Low_lfc (Gene DCUN1D3): 0.29
- Low_logP (Gene DCUN1D3): 0.82
- High_lfc (Gene DCUN1D4): -0.09
- High_logP (Gene DCUN1D4): 0.04
- Low_lfc (Gene DCUN1D4): -0.2
- Low_logP (Gene DCUN1D4): 0.05
- High_lfc (Gene DCUN1D5): 0.69
- High_logP (Gene DCUN1D5): 2.79
- Low_lfc (Gene DCUN1D5): -0.49
- Low_logP (Gene DCUN1D5): 0
- High_lfc (Gene DDA1): 0.43
- High_logP (Gene DDA1): 1.02
- Low_lfc (Gene DDA1): -0.23
- Low_logP (Gene DDA1): 0.16
- High_lfc (Gene DDB1): 2.03
- Low_lfc (Gene DDB1): 0.4
- Low_logP (Gene DDB1): 0.83
- High_lfc (Gene DDB2): 0.02
- High_logP (Gene DDB2): 0.06
- Low_lfc (Gene DDB2): 0.07
- Low_logP (Gene DDB2): 0.53
- High_lfc (Gene DET1): -0.36
- High_logP (Gene DET1): 0.06
- Low_lfc (Gene DET1): -0.27
- Low_logP (Gene DET1): 0.06
- High_lfc (Gene DHX15): 0.66
- Low_lfc (Gene DHX15): 0.13
- Low_logP (Gene DHX15): 0.31
- High_lfc (Gene DTL): -0.25
- High_logP (Gene DTL): 0.1
- Low_lfc (Gene DTL): 0.46
- Low_logP (Gene DTL): 1.87
- High_lfc (Gene ECT2L): -0.03
- High_logP (Gene ECT2L): 0.31
- Low_lfc (Gene ECT2L): -0.31
- Low_logP (Gene ECT2L): 0.2
- High_lfc (Gene EED): 0.01
- High_logP (Gene EED): 0.06
- Low_lfc (Gene EED): -0.55
- Low_logP (Gene EED): 0.01
- High_lfc (Gene EIF4A1): -0.26
- High_logP (Gene EIF4A1): 0.15
- Low_lfc (Gene EIF4A1): -0.34
- Low_logP (Gene EIF4A1): 0.04
- High_lfc (Gene EIF4A3): -0.3
- High_logP (Gene EIF4A3): 0.1
- Low_lfc (Gene EIF4A3): 0.62
- Low_logP (Gene EIF4A3): 1.82
- High_lfc (Gene ELOA2): 0.02
- High_logP (Gene ELOA2): 0.19
- Low_lfc (Gene ELOA2): -0.02
- Low_logP (Gene ELOA2): 0.17
- High_lfc (Gene ELOA3): -0.12
- High_logP (Gene ELOA3): 0.33
- Low_lfc (Gene ELOA3): -0.41
- Low_logP (Gene ELOA3): 0.06
- High_lfc (Gene ELOA3D): -0.34
- High_logP (Gene ELOA3D): 0.11
- Low_lfc (Gene ELOA3D): -0.14
- Low_logP (Gene ELOA3D): 0.69
- High_lfc (Gene ELOA): -0.54
- High_logP (Gene ELOA): 0
- Low_lfc (Gene ELOA): 0.05
- Low_logP (Gene ELOA): 0.65
- High_lfc (Gene ELOB): -0.05
- High_logP (Gene ELOB): 0.33
- Low_lfc (Gene ELOB): 0.22
- Low_logP (Gene ELOB): 0.4
- High_lfc (Gene ELOC): -0.21
- High_logP (Gene ELOC): 0.17
- Low_lfc (Gene ELOC): 0.63
- Low_logP (Gene ELOC): 1.29
- High_lfc (Gene ENC1): -0.27
- High_logP (Gene ENC1): 0.19
- Low_lfc (Gene ENC1): -0.31
- Low_logP (Gene ENC1): 0.09
- High_lfc (Gene EPHA4): 0.01
- High_logP (Gene EPHA4): 0.19
- Low_lfc (Gene EPHA4): -0.17
- Low_logP (Gene EPHA4): 0.06
- High_lfc (Gene ERCC8): -0.19
- High_logP (Gene ERCC8): 0.27
- Low_lfc (Gene ERCC8): -0.63
- Low_logP (Gene ERCC8): 0.01
- High_lfc (Gene ESCO1): 0.1
- High_logP (Gene ESCO1): 0.14
- Low_lfc (Gene ESCO1): -0.14
- Low_logP (Gene ESCO1): 0.11
- High_lfc (Gene FAM9A): -0.28
- High_logP (Gene FAM9A): 0.03
- Low_lfc (Gene FAM9A): -0.03
- Low_logP (Gene FAM9A): 0.66
- High_lfc (Gene FBXL2): -0.01
- High_logP (Gene FBXL2): 0.32
- Low_lfc (Gene FBXL2): -0.67
- Low_logP (Gene FBXL2): 0.02
- High_lfc (Gene FBXL3): 0.05
- High_logP (Gene FBXL3): 0.1
- Low_lfc (Gene FBXL3): 0.28
- Low_logP (Gene FBXL3): 0.58
- High_lfc (Gene FBXL4): -0.08
- High_logP (Gene FBXL4): 0.06
- Low_lfc (Gene FBXL4): 0.06
- Low_logP (Gene FBXL4): 0.49
- High_lfc (Gene FBXL5): 0.03
- High_logP (Gene FBXL5): 0.04
- Low_lfc (Gene FBXL5): 0.05
- Low_logP (Gene FBXL5): 0.32
- High_lfc (Gene FBXL6): 0.08
- High_logP (Gene FBXL6): 0.54
- Low_lfc (Gene FBXL6): 0.07
- Low_logP (Gene FBXL6): 0.24
- High_lfc (Gene FBXL7): -0.35
- High_logP (Gene FBXL7): 0.03
- Low_lfc (Gene FBXL7): -0.35
- Low_logP (Gene FBXL7): 0.01
- High_lfc (Gene FBXL8): -0.11
- High_logP (Gene FBXL8): 0.39
- Low_lfc (Gene FBXL8): 0.2
- Low_logP (Gene FBXL8): 0.54
- High_lfc (Gene FBXL12): 0.01
- High_logP (Gene FBXL12): 0.22
- Low_lfc (Gene FBXL12): 0.06
- Low_logP (Gene FBXL12): 0.38
- High_lfc (Gene FBXL13): -0.18
- High_logP (Gene FBXL13): 0.02
- Low_lfc (Gene FBXL13): -0.03
- Low_logP (Gene FBXL13): 0.46
- High_lfc (Gene FBXL14): -0.12
- High_logP (Gene FBXL14): 0.22
- Low_lfc (Gene FBXL14): 0.15
- Low_logP (Gene FBXL14): 0.61
- High_lfc (Gene FBXL15): 0.41
- High_logP (Gene FBXL15): 0.56
- Low_lfc (Gene FBXL15): 0.18
- Low_logP (Gene FBXL15): 0.28
- High_lfc (Gene FBXL16): 0.12
- High_logP (Gene FBXL16): 0.12
- Low_lfc (Gene FBXL16): -0.11
- Low_logP (Gene FBXL16): 0.07
- High_lfc (Gene FBXL17): 0.03
- High_logP (Gene FBXL17): 0.74
- Low_lfc (Gene FBXL17): -0.02
- Low_logP (Gene FBXL17): 0.44
- High_lfc (Gene FBXL18): 0.28
- High_logP (Gene FBXL18): 1.09
SMILES: Cc1sc2c(c1C)C(c1ccc(Cl)cc1)=N[C@@H](CC(=O)NCCOCCOCCOCCOCCNC(=O)COc1c(Br)cc(/C=C3\C(=O)Nc4ccc(Br)cc43)cc1Br)c1nnc(C)n1-2 [Compound 9]
